Values belong to the compound of their own block, whether it stands above or below them.
How the values were obtained:
[1] = system: R13.2 (DNA, aptamer) TGTACCGTCTGAGCGATTCGTACTGTGGGCACCAATCGTACCCAATACTTGCGAATCAGCCAGTCAGTGTTAAGGAGTGC; assay: fluorescence saturation binding on magnetic beads; conditions: 100 mM NaCl, 2 mM MgCl2; immobilised compound (biotinylated bromacil on streptavidin beads); 20 mM Tris-HCl; 5 min
[2] = system: R13.2 (DNA, aptamer) TGTACCGTCTGAGCGATTCGTACTGTGGGCACCAATCGTACCCAATACTTGCGAATCAGCCAGTCAGTGTTAAGGAGTGC; assay: competitive elution of labelled DNA from bromacil beads, fluorescence; conditions: 100 mM NaCl, 2 mM MgCl2, 20 mM Tris-HCl, 0.01% methanol, 1 μM free compound

SMILES: CCC(C)n1c(=O)[nH]c(C)c(Br)c1=O (stereo not shown)
- Kd [1]: 9.6 ± 7.8 nM
- binding ([2]; 100 nM DNA, 0.51 ± 0.16 RFU (blank -0.0045)): yes

- binding ([2]; 0.22 ± 0.15 RFU against 0.51 for bromacil): weak
SMILES: CCNc1nc(Cl)nc(NC(C)C)n1

- binding ([2]; 0.28 ± 0.09 RFU against 0.51 for bromacil): weak
SMILES: Cn1ccc(=O)[nH]c1=O

From article PMC4225842 (2014)
